Source: patent publication US8901317B2, “Tryptamine derivatives, their preparation and their use in gastropathy” (Council of Scientific & Industrial Research, priority 2010, dated 2014)

Assay: Ferric reducing antioxidant power (FRAP) assay
Conditions: 6 min; compound at 10 μM relative to ferrous sulfate
Description: The antioxidant property of different tryptamine derivatives were assessed and compared with the known antioxidants for potency. […] The FRAP assay is based on the measurement of the ability of the substance to reduce Fe^3+ to Fe^2+, greater the reducing ability greater the anti oxidant property. Antioxidants reduce Fe^3+-TPTZ in to blue colored Fe^2+-TPTZ complex, which results in an increase in the absorbance at 595 nm giving a FRAP value. […] Absorbance changes at different time intervals (FIG. 6) as well as at different concentrations (FIG. 7) at time 6 min in the presence of different compounds at 595 nm were measured. FRAP values at 6 min and 65 min were calculated from different tryptamine derivatives and some known antioxidant (Table 1). […] DPPH assay based on the DPPH free radicals scavenging power of the antioxidant molecules. Higher the scavenging power higher will be the antioxidant property.
The assay was performed in a 96-well microplate. FRAP reagent was prepared by mixing of 10 ml acetate buffer (200 mM, pH-3.6), 1 ml of 2,4,6-tris(2-pyridyl)-s-triazine (TPTZ) solution (10 mM in 40 mM HCl) and 1 ml of ferric chloride solution (20 mM) in distilled water. For 1 h the mixture was kept in a water bath at 37° C. In 96-well microplates, 25 μL of the compounds under investigation dissolved (in methanol, some compound dissolved in water) at different concentrations in the range 1-25 μM was placed in triplicate and freshly prepared FRAP solution (175 μL) was added to this sample. A micro plate reader monitored the absorbance at 595 nm at different time intervals for up to 150 min. The absorbance of a mixture 175 μL TRAP sol and 25 μL methanol or water was taken which was subtracted from the absorbance of the samples at each time interval to calculate the absorbance change (ΔA). The FRAP value at time interval t (FRAP valuet) was calculated according to the formula: FRAP valuet(M)=(ΔatFl/ΔatFe^2+)×10^−5 Where ΔatFl is the absorbance change after the time interval t (6 and 65 min) relative to the tested flavonoid at the concentration of 10 μM and ΔatFe^2+ is the absorbance change at the same time interval relative to ferrous sulfate at the same concentration (Pal, C; et al. Free Radic Biol Med, 49(2), 258-267, 2010, Firuzi, O; et al. Biochim. Biophys. Acta 1721:174-184; 2005).

| Compound | FRAP Value6 min (μM) M ± SD [µM] |
| --- | --- |
| O=C1O[C@H]([C@@H](O)CO)C(O)=C1O [Ascorbic acid, reference compound] | 15.46 ± 0.07 |
| O=C(Cc1c[nH]c2ccccc12)NCCc1c[nH]c2ccc(O)cc12 [Compound 2c, N-(2-(5-hydroxy-1H-indol-3-yl)ethyl)-2-(1H-indol-3-yl)acetamide] | 2.48 ± 0.10 |
| O=C(/C=C/c1ccc(O)cc1)NCCc1c[nH]c2ccccc12 [Compound 2e, (E)-N-(2-(1H-indol-3-yl)ethyl)-3-(4-hydroxyphenyl)acrylamide] | 2.45 ± 0.19 |
| O=C(Cc1c[nH]c2ccccc12)NCCc1c[nH]c2ccccc12 [Compound 2f, N-(2-(1H-indol-3-yl)ethyl)-2-(1H-indol-3-yl)acetamide] | 2.44 ± 0.24 |
| COc1ccc2[nH]cc(CCNC(=O)/C=C/c3ccc(O)cc3)c2c1 [Compound 2h, (E)-3-(4-hydroxyphenyl)-N-(2-(5-methoxy-1H-indol-3-yl)ethyl)acrylamide] | 1.87 ± 0.13 |
| COc1ccc2[nH]cc(CCNC(=O)Cc3c[nH]c4ccccc34)c2c1 [Compound 2i, 2-(1H-indol-3-yl)-N-(2-(5-methoxy-1H-indol-3-yl)ethyl) acetamide] | 1.94 ± 0.04 |

Same assay, conditions: 65 min; compound at 10 μM relative to ferrous sulfate

| Compound | FRAP Value65 min (μM) M ± SD [µM] |
| --- | --- |
| O=C1O[C@H]([C@@H](O)CO)C(O)=C1O [Ascorbic acid, reference compound] | 15.89 ± 2.24 |
| O=C(Cc1c[nH]c2ccccc12)NCCc1c[nH]c2ccc(O)cc12 [Compound 2c, N-(2-(5-hydroxy-1H-indol-3-yl)ethyl)-2-(1H-indol-3-yl)acetamide] | 3.57 ± 0.41 |
| O=C(/C=C/c1ccc(O)cc1)NCCc1c[nH]c2ccccc12 [Compound 2e, (E)-N-(2-(1H-indol-3-yl)ethyl)-3-(4-hydroxyphenyl)acrylamide] | 5.60 ± 1.02 |
| O=C(Cc1c[nH]c2ccccc12)NCCc1c[nH]c2ccccc12 [Compound 2f, N-(2-(1H-indol-3-yl)ethyl)-2-(1H-indol-3-yl)acetamide] | 3.33 ± 0.49 |
| COc1ccc2[nH]cc(CCNC(=O)/C=C/c3ccc(O)cc3)c2c1 [Compound 2h, (E)-3-(4-hydroxyphenyl)-N-(2-(5-methoxy-1H-indol-3-yl)ethyl)acrylamide] | 2.93 ± 1.43 |
| COc1ccc2[nH]cc(CCNC(=O)Cc3c[nH]c4ccccc34)c2c1 [Compound 2i, 2-(1H-indol-3-yl)-N-(2-(5-methoxy-1H-indol-3-yl)ethyl) acetamide] | 2.5 ± 0.34 |

Assay: DPPH free radical scavenging assay
Conditions: compounds 100 μM; 517 nm (Table 2)
Description: The antioxidant property of different tryptamine derivatives were assessed and compared with the known antioxidants for potency. A range of different synthesized compounds and known anti oxidants, quercetin, ascorbic acid and gallic acid were analyzed by the FRAP assay. The FRAP assay is based on the measurement of the ability of the substance to reduce Fe^3+ to Fe^2+, greater the reducing ability greater the anti oxidant property. Antioxidants reduce Fe^3+-TPTZ in to blue colored Fe^2+-TPTZ complex, which results in an increase in the absorbance at 595 nm giving a FRAP value. […] Absorbance changes at different time intervals (FIG. 6) as well as at different concentrations (FIG. 7) at time 6 min in the presence of different compounds at 595 nm were measured. FRAP values at 6 min and 65 min were calculated from different tryptamine derivatives and some known antioxidant (Table 1). […] DPPH assay based on the DPPH free radicals scavenging power of the antioxidant molecules. Higher the scavenging power higher will be the antioxidant property. […] This assay was performed in presence of some known antioxidants such as ascorbic acid, quercetin and gallic acid.
2,2-Diphenyl-1-Picrylhydrazyl (DPPH) is a stable free radical that can accept hydrogen radical or an electron and become a stable diamagnetic molecule. The antioxidants can scavenge the DPPH by donating hydrogen as visualized by discoloration of the DPPH radical from purple to yellow (Pal, C; et al. Free Radic Biol Med, 49(2), 258-267; 2010, Ben Farhat, M.; et al. J. Agric. Food Chem. 57:10349-10356; 2009, Han, J; et al. Wei Sheng Yan Jiu 38:596-598; 2009). The assay system contained 1 mL of compounds under investigation dissolved (in methanol, some compound dissolved in water) at different concentrations in the range 10-100 μM solution and 4 ml of DPPH (0.15 mM) in methanol (80% in water v/v) and mixed well. It was allowed to stand for 30 min at 27° C. away from light. Ascorbic acid at the same concentration was taken as positive control. The absorbance of the solution was measured spectrophotometrically at 517 nm and from the decrease of absorption; the antioxidant activity of different tryptamine derivatives were determined.

| Compound | Absorbance change (ΔA) at 30 min |
| --- | --- |
| O=C(Cc1c[nH]c2ccccc12)NCCc1c[nH]c2ccc(O)cc12 [Compound 2c, N-(2-(5-hydroxy-1H-indol-3-yl)ethyl)-2-(1H-indol-3-yl)acetamide] | 0.14 ± 0.04 |
| O=C(/C=C/c1ccc(O)cc1)NCCc1c[nH]c2ccccc12 [Compound 2e, (E)-N-(2-(1H-indol-3-yl)ethyl)-3-(4-hydroxyphenyl)acrylamide] | 0.11 ± 0.02 |
| O=C(Cc1c[nH]c2ccccc12)NCCc1c[nH]c2ccccc12 [Compound 2f, N-(2-(1H-indol-3-yl)ethyl)-2-(1H-indol-3-yl)acetamide] | 0.13 ± 0.03 |
| COc1ccc2[nH]cc(CCNC(=O)/C=C/c3ccc(O)cc3)c2c1 [Compound 2h, (E)-3-(4-hydroxyphenyl)-N-(2-(5-methoxy-1H-indol-3-yl)ethyl)acrylamide] | 0.11 ± 0.03 |
| COc1ccc2[nH]cc(CCNC(=O)Cc3c[nH]c4ccccc34)c2c1 [Compound 2i, 2-(1H-indol-3-yl)-N-(2-(5-methoxy-1H-indol-3-yl)ethyl) acetamide] | 0.12 ± 0.02 |
